Measured values as given in patent publication US8952024B2, “Herbicidal pyrimidone derivatives” (E I du Pont de Nemours and Company, priority 2009, dated 2015).

How the values were obtained:
Test in all cases: Test B pre-/postemergence plant response
Format in all cases: in vivo
kochia (Kochia scoparia) = tested on: kochia (Kochia scoparia)
Outline: (§1)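 Plants treated either at seeding (loam/sand soil) or postemergence at 2 to 18 cm height, using a surfactant-containing non-phytotoxic solvent formulation. Evaluation was visual after 13 to 15 days, 0 to 100 scale relative to controls.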

[1] = tested on: goosegrass (Eleusine indica)
Outline: as §1

[2] = tested on: velvetleaf (Abutilon theophrasti)
Outline: as §1

[3] = tested on: woolly cupgrass (Eriochloa villosa)
Outline: as §1

[4] = tested on: Italian ryegrass (Lolium multiflorum)
Outline: as §1

[5] = tested on: johnsongrass (Sorghum halepense)
Outline: as §1

[6] = tested on: large crabgrass (Digitaria sanguinalis)
Outline: as §1

[7] = tested on: downy bromegrass (Bromus tectorum)
Outline: as §1

[8] = tested on: wheat (Triticum aestivum)
Outline: as §1

[9] = tested on: ragweed (common ragweed, Ambrosia elatior)
Outline: as §1

[10] = tested on: lambsquarters (Chenopodium album)
Outline: as §1

[11] = tested on: pigweed (Amaranthus retroflexus)
Outline: as §1

wild oat (Avena fatua) = tested on: wild oat (Avena fatua)
Outline: as §1

[12] = tested on: Surinam grass (Brachiaria decumbens)
Outline: as §1

corn (Zea mays) = tested on: corn (Zea mays)
Outline: as §1

[13] = tested on: yellow nutsedge (Cyperus esculentus)
Outline: as §1

soybean (Glycine max) = tested on: soybean (Glycine max)
Outline: as §1

[14] = tested on: blackgrass (Alopecurus myosuroides)
Outline: as §1

[15] = 31 g ai/ha, postemergence, scale 0 to 100, 0 is no effect, 100 is complete control
[16] = 62 g ai/ha, postemergence, 0 is no effect, 100 is complete control, 13 to 15 days
[17] = Postemergence, 250 g ai/ha, scale 0 to 100 (0 no effect, 100 complete control)
[18] = Postemergence, 125 g ai/ha, visual rating after 13 to 15 days, scale 0 (no effect) to 100 (complete control)

O=C1CCCC(O)=C1C(=O)c1cnc(-c2ccccc2)n(C2CC2)c1=O [Compound 90]
100: Plant response rating, Velvetleaf [2, 17] | Plant response rating, Lambsquarters [10, 17] | Plant response rating, Pigweed [11, 17] | Plant response rating, Soybean (soybean (Glycine max); [17])
80: Plant response rating, Crabgrass, Large [6, 17]
5: Plant response rating, Bromegrass, Downy [7, 15] | Bromegrass, Downy plant response rating (0 to 100 scale) [7, 16] | Plant response rating, Wheat [8, 15] | Oat, Wild plant response rating (0 to 100 scale) (wild oat (Avena fatua); [16]) | Plant response rating, Blackgrass [14, 15] | Blackgrass plant response rating (0 to 100 scale) [14, 16] | Plant response rating, Blackgrass [14, 18]
75: Plant response rating, Goosegrass [1, 17] | Crabgrass, Large plant response rating (0 to 100 scale) [6, 16] | Plant response rating, Crabgrass, Large [6, 18] | Ragweed plant response rating (0 to 100 scale) [9, 16] | Plant response rating, Surinam Grass [12, 17] | Plant response rating, Corn (corn (Zea mays); [17]) | Plant response rating, Nutsedge, Yellow [13, 17]
50: Plant response rating, Cupgrass, Woolly [3, 18]
20: Plant response rating, Oat, Wild (wild oat (Avena fatua); [17])
60: Plant response rating, Goosegrass [1, 15] | Goosegrass plant response rating (0 to 100 scale) [1, 16] | Plant response rating, Ragweed [9, 15] | Plant response rating, Nutsedge, Yellow [13, 15]
45: Plant response rating, Cupgrass, Woolly [3, 15] | Cupgrass, Woolly plant response rating (0 to 100 scale) [3, 16] | Plant response rating, Corn (corn (Zea mays); [18])
25: Johnsongrass plant response rating (0 to 100 scale) [5, 16] | Corn plant response rating (0 to 100 scale) (corn (Zea mays); [16])
35: Plant response rating, Wheat [8, 17]
95: Plant response rating, Ragweed [9, 17] | Lambsquarters plant response rating (0 to 100 scale) [10, 16]
10: Plant response rating, Johnsongrass [5, 15] | Plant response rating, Bromegrass, Downy [7, 18] | Plant response rating, Bromegrass, Downy [7, 17] | Wheat plant response rating (0 to 100 scale) [8, 16]
0: Plant response rating, Ryegrass, Italian [4, 15] | Ryegrass, Italian plant response rating (0 to 100 scale) [4, 16] | Plant response rating, Ryegrass, Italian [4, 17] | Plant response rating, Oat, Wild (wild oat (Avena fatua); [15])
65: Plant response rating, Kochia (kochia (Kochia scoparia); [15]) | Plant response rating, Johnsongrass [5, 17] | Plant response rating, Crabgrass, Large [6, 15] | Plant response rating, Surinam Grass [12, 15] | Surinam Grass plant response rating (0 to 100 scale) [12, 16] | Nutsedge, Yellow plant response rating (0 to 100 scale) [13, 16]
55: Plant response rating, Cupgrass, Woolly [3, 17]
15: Plant response rating, Corn (corn (Zea mays); [15])
98: Plant response rating, Kochia (kochia (Kochia scoparia); [17]) | Velvetleaf plant response rating (0 to 100 scale) [2, 16] | Pigweed plant response rating (0 to 100 scale) [11, 16] | Plant response rating, Soybean (soybean (Glycine max); [15]) | Soybean plant response rating (0 to 100 scale) (soybean (Glycine max); [16])
85: Kochia plant response rating (0 to 100 scale) (kochia (Kochia scoparia); [16]) | Plant response rating, Velvetleaf [2, 15] | Plant response rating, Lambsquarters [10, 15] | Plant response rating, Pigweed [11, 15]
30: Plant response rating, Blackgrass [14, 17]
